According to PubChem BioAssay (NCI):
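Each compound was tested at five concentrations against cells in 96-well plates for 48 hours. At the GI50, growth is halved. TGI denotes the concentration required for complete inhibition of growth.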

Experiments:
Experiment in all cases: inhibition of tumour cell growth, NCI panel, 48 h
[1] = system: KM12 colon
[2] = system: MALME-3M melanoma
[3] = system: IGROV1 ovarian
[4] = system: MDA-MB-468 breast
[5] = system: UACC-62 melanoma
[6] = system: HT29 colon
[7] = system: OVCAR-8 ovarian
[8] = system: CCRF-CEM leukemia
[9] = system: MOLT-4 leukemia
[10] = system: NCI-H226 lung
[11] = system: MCF7 breast
[12] = system: OVCAR-4 ovarian
[13] = system: SF-268 CNS
[14] = system: HCT-15 colon
[15] = system: HOP-92 NSCLC
[16] = system: OVCAR-5 ovarian
[17] = system: A549 NSCLC
[18] = system: BT-549 breast
[19] = system: SK-MEL-28 melanoma
[20] = system: HL-60(TB) leukemia
[21] = system: NCI-H522 lung
[22] = system: M14 melanoma
[23] = system: NCI-H23 lung
[24] = system: PC-3 prostate
[25] = system: HS 578T breast
[26] = system: RXF 393 renal
[27] = system: 786-0 renal
[28] = system: HOP-62 NSCLC
[29] = system: COLO 205 colon
[30] = system: SR leukemia
[31] = system: CAKI-1 renal
[32] = system: T-47D breast
[33] = system: SF-539 CNS
[34] = system: RPMI-8226 leukemia
[35] = system: UACC-257 melanoma
[36] = system: DU-145 prostate
[37] = system: ACHN renal
[38] = system: K-562 leukemia
[39] = system: SF-295 CNS
[40] = system: TK-10 renal
[41] = system: HCT-116 colon
[42] = system: SNB-19 CNS
[43] = system: EKVX NSCLC
[44] = system: SW-620 colon
[45] = system: OVCAR-3 ovarian
[46] = system: A498 renal
[47] = system: NCI/ADR-RES ovarian
[48] = system: SN12C renal
[49] = system: LOX IMVI melanoma
[50] = system: MDA-MB-435

Question: `COc1cc2cc(C(=O)N3C[C@@H](CCl)c4c3cc(OC(=O)N3CCN(C)[C@@H]5CSSC[C@@H]53)c3ccccc43)[nH]c2c(OC)c1OC` was tested. Which GI50 [1] did it give?
Answer: 1.1 µM

Question: What about the TGI [1] of the same compound?
Answer: 26.7 µM

Question: What about the GI50 [2] of the same compound?
Answer: 0.213 µM

Question: What about the TGI [2] of the same compound?
Answer: 0.719 µM

Question: What about the GI50 [3] of the same compound?
Answer: 1.53 µM

Question: What about the TGI [3] of the same compound?
Answer: > 100 µM

Question: And the GI50 [4]?
Answer: 0.164 µM

Question: What about the TGI [4] of the same compound?
Answer: 0.392 µM

Question: What about the GI50 [5] of the same compound?
Answer: 0.147 µM

Question: And the TGI [5]?
Answer: 0.665 µM

Question: And the GI50 [6]?
Answer: 0.226 µM

Question: What about the TGI [6] of the same compound?
Answer: 37.3 µM

Question: And the GI50 [7]?
Answer: 0.151 µM

Question: And the TGI [7]?
Answer: 2.21 µM

Question: And the GI50 [8]?
Answer: 0.105 µM

Question: And the TGI [8]?
Answer: 1.39 µM

Question: What about the GI50 [9] of the same compound?
Answer: 0.0697 µM

Question: What about the TGI [9] of the same compound?
Answer: 1.78 µM

Question: What about the GI50 [10] of the same compound?
Answer: 1.02 µM

Question: And the TGI [10]?
Answer: 7.85 µM

Question: What about the GI50 [11] of the same compound?
Answer: 0.0281 µM

Question: What about the TGI [11] of the same compound?
Answer: 12.9 µM

Question: What about the GI50 [12] of the same compound?
Answer: 1.62 µM

Question: What about the TGI [12] of the same compound?
Answer: > 100 µM

Question: And the GI50 [13]?
Answer: 0.175 µM

Question: And the TGI [13]?
Answer: 12.2 µM

Question: What about the GI50 [14] of the same compound?
Answer: 0.247 µM

Question: And the TGI [14]?
Answer: 11.7 µM

Question: What about the GI50 [15] of the same compound?
Answer: 0.238 µM

Question: What about the TGI [15] of the same compound?
Answer: 0.809 µM

Question: What about the GI50 [16] of the same compound?
Answer: 0.284 µM

Question: And the TGI [16]?
Answer: 1.4 µM

Question: What about the GI50 [17] of the same compound?
Answer: 0.18 µM

Question: And the TGI [17]?
Answer: > 100 µM

Question: And the GI50 [18]?
Answer: 0.165 µM

Question: And the TGI [18]?
Answer: 0.593 µM

Question: What about the GI50 [19] of the same compound?
Answer: 0.261 µM

Question: What about the TGI [19] of the same compound?
Answer: 0.762 µM

Question: And the GI50 [20]?
Answer: 0.052 µM

Question: And the TGI [20]?
Answer: 0.64 µM

Question: What about the GI50 [21] of the same compound?
Answer: 0.146 µM

Question: And the TGI [21]?
Answer: 0.531 µM

Question: What about the GI50 [22] of the same compound?
Answer: 0.251 µM

Question: And the TGI [22]?
Answer: 1.06 µM

Question: And the GI50 [23]?
Answer: 0.0454 µM

Question: What about the TGI [23] of the same compound?
Answer: 0.186 µM

Question: What about the GI50 [24] of the same compound?
Answer: 0.358 µM

Question: What about the TGI [24] of the same compound?
Answer: 13.7 µM

Question: What about the GI50 [25] of the same compound?
Answer: 2.26 µM

Question: What about the TGI [25] of the same compound?
Answer: 7.04 µM

Question: What about the GI50 [26] of the same compound?
Answer: 0.132 µM

Question: And the TGI [26]?
Answer: 0.273 µM

Question: What about the GI50 [27] of the same compound?
Answer: 0.197 µM

Question: And the TGI [27]?
Answer: 0.579 µM

Question: What about the GI50 [28] of the same compound?
Answer: 0.205 µM

Question: What about the TGI [28] of the same compound?
Answer: 0.925 µM

Question: And the GI50 [29]?
Answer: 0.328 µM

Question: And the TGI [29]?
Answer: 1.64 µM

Question: What about the GI50 [30] of the same compound?
Answer: 0.0373 µM

Question: What about the TGI [30] of the same compound?
Answer: 0.299 µM

Question: And the GI50 [31]?
Answer: 0.248 µM

Question: What about the TGI [31] of the same compound?
Answer: > 100 µM

Question: And the GI50 [32]?
Answer: 0.287 µM

Question: What about the TGI [32] of the same compound?
Answer: > 100 µM

Question: What about the GI50 [33] of the same compound?
Answer: 0.172 µM

Question: What about the TGI [33] of the same compound?
Answer: 0.477 µM

Question: What about the GI50 [34] of the same compound?
Answer: 0.161 µM

Question: And the TGI [34]?
Answer: 0.569 µM

Question: And the GI50 [35]?
Answer: 0.501 µM

Question: What about the TGI [35] of the same compound?
Answer: 2.99 µM

Question: And the GI50 [36]?
Answer: 0.0626 µM

Question: And the TGI [36]?
Answer: > 100 µM

Question: What about the GI50 [37] of the same compound?
Answer: 0.0282 µM

Question: And the TGI [37]?
Answer: 0.222 µM

Question: What about the GI50 [38] of the same compound?
Answer: 0.397 µM

Question: What about the TGI [38] of the same compound?
Answer: > 100 µM

Question: What about the GI50 [39] of the same compound?
Answer: 0.133 µM

Question: And the TGI [39]?
Answer: 0.474 µM

Question: What about the GI50 [40] of the same compound?
Answer: 1.29 µM

Question: What about the TGI [40] of the same compound?
Answer: > 100 µM

Question: And the GI50 [41]?
Answer: 0.187 µM

Question: What about the TGI [41] of the same compound?
Answer: > 100 µM

Question: And the GI50 [42]?
Answer: 0.224 µM

Question: What about the TGI [42] of the same compound?
Answer: 6.41 µM

Question: What about the GI50 [43] of the same compound?
Answer: 0.23 µM

Question: And the TGI [43]?
Answer: 1.81 µM

Question: What about the GI50 [44] of the same compound?
Answer: 0.264 µM

Question: And the TGI [44]?
Answer: > 100 µM

Question: What about the GI50 [45] of the same compound?
Answer: 0.489 µM

Question: What about the TGI [45] of the same compound?
Answer: 5.54 µM

Question: What about the GI50 [46] of the same compound?
Answer: 1.23 µM

Question: And the TGI [46]?
Answer: 3.88 µM

Question: And the GI50 [47]?
Answer: 0.148 µM

Question: And the TGI [47]?
Answer: 0.613 µM

Question: What about the GI50 [48] of the same compound?
Answer: 0.203 µM

Question: And the TGI [48]?
Answer: 31.7 µM

Question: What about the GI50 [49] of the same compound?
Answer: 0.165 µM

Question: What about the TGI [49] of the same compound?
Answer: 0.829 µM

Question: And the GI50 [50]?
Answer: 0.836 µM

Question: And the TGI [50]?
Answer: 2.93 µM
